Measured values from patent US20220133957A1, “Sclerostin Inhibitors That Promote Bone Morphogenetic Protein Expression” (Emory University, priority 2019, published 2022).

T1: sclerostin and LRP5 interaction (Homo sapiens, UniProt Q9BQB4)
T1 sequence (Q9BQB4 24-213): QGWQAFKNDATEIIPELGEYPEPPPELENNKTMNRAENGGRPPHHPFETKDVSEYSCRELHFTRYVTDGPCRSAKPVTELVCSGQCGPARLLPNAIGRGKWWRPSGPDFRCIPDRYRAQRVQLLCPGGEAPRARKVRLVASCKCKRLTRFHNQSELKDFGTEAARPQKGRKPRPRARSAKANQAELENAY


Legend:
[1] = tested on: AXIN2, Wnt1 and SOST mRNA; test: BMP-2-induced marker gene expression in Wnt pathway (mRNA levels) in MC3T3 cells; format: cell-based; settings: 10 uM compound, BMP-2 35 ng/ml, MC3T3 cells treated for 48 hrs
[2] = tested on: rabbit posterolateral spine fusion; test: rabbit model of posterolateral lumbar arthrodesis (spinal fusion); format: in vivo; settings: for spinal fusion rates compared to controls: 300 mM; for spinal fusion rates compared to controls / spines successfully fused: 6 weeks; for spines successfully fused: 500 mM as standalone drug on plain collagen sponge without ICBG; for posterolateral spine fusion rate: 500 mM in combination with autologous iliac crest bone graft (ICBG), 6 weeks after arthrodesis
Method: Coronal μCT reconstructions of rabbit spines 6 weeks following posterolateral spine arthrodesis are shown.
C07 and VA1 were assessed for their ability to enhance spinal fusion rates in vivo using a validated rabbit model of posterolateral lumbar arthrodesis. Both were tested as standalone osteoinductive drugs, as well as in combination with autologous ICBG, using two separate doses (300 and 500 mM). All rabbits were euthanized six weeks following arthrodesis surgery and the spine fusion masses were assessed by both plain radiography and μCT. Successful fusion, defined as continuous bridging bone between the TPs, was assessed by two spine surgeons.

Sprague-Dawley rats = test: in vivo subcutaneous ectopic mineralization model (collagen sponge implant); parameters: species or system rat; settings: 4 weeks; for dose-response of ectopic mineralization: 10, 25, 50, 75 and 100 mM on collagen sponge; for de novo ectopic mineralization: standalone agent on plain collagen sponge, 0-100 mM, subcutaneous on chest
Method: Compound was delivered in 100 uL at indicated concentration for each collagen disc in DMSO solvent before subcutaneous implantation.
Sclerostin inhibitors were tested in a challenging in vivo subcutaneous ectopic mineralization model. Other than the osteoinductive BMPs, few if any proteins or small molecules are capable of inducing de novo ectopic mineralization in this rat model. Sclerostin inhibitors were loaded individually as standalone agents onto a plain collagen sponge (DSM) at 0, 10, 25, 50, 75, and 100 mM and then surgically implanted subcutaneously on the chest of 6-week-old male Sprague-Dawley rats for 4 weeks. A positive control of 10 μg of recombinant BMP-2 was also tested.

[3] = molecular target: T1, sclerostin and LRP5 interaction; test: in vitro binding assay with purified recombinant sclerostin and LRP5 proteins (125-Iodine-labeled sclerostin, biotin-labeled LRP5 pull-down); settings: 0.1 ug biotin-labeled LRP5, 20,000 cpm 125-Iodine-labeled sclerostin, 30 min at room temperature
Method: (§1) To ensure that sclerostin was in fact being expressed in cell lines, we tested C2C12, MSC and MC3T3 cell lines. Western blots were performed using anti-sclerostin mAbs both with and without BMP-2 treatment. […] Sclerostin and LRP5 was labeled with 125-Iodine and biotin, respectively. Constant amounts of biotin-labeled LRP5 (0.1 ug) and 125-Iodine-labeled sclerostin (20,000 cpm) were incubated with or without varying concentrations of unlabeled-sclerostin+/−various concentrations of compounds for 30 min at room temperature in a 100 uL assay buffer. Biotin-labeled LRP5 was pulled down with a 20 uL slurry of neutravidin-agarose beads. The counts associated with pellets were counted in a Beckman 4000 Gamma counter. Unlabeled sclerostin competed off about 90% of labeled-sclerostin.

[4] = molecular target: purified recombinant LRP5; test: radioligand competition pull-down: 125I-sclerostin and biotin-LRP5, neutravidin-agarose beads, gamma counting; competitor unlabeled sclerostin
Sclerostin protein = test: Western blots using anti-sclerostin mAbs with and without BMP-2 treatment; format: cell-based; settings: C2C12, MSC and MC3T3 cell lines
Method: as §1

Row | Molecule | BMP-induced mRNA levels of AXIN2, Wnt1 and SOST compared to BMP-2 alone control [1] | spinal fusion rates compared to controls [2] | spines successfully fused [2] [%] | posterolateral spine fusion rate [2] [%] | dose-response of ectopic mineralization (Sprague-Dawley rats) | de novo ectopic mineralization (Sprague-Dawley rats) | other results
1 | N#Cc1ccc(NCCNc2ncccn2)nc1 [Compound C07, 6-((2-(pyrimidin-2-ylamino)ethyl)amino)nicotinonitrile] | elevation | Neither VA1 nor C07 at 300 mM showed any increase | 33 | 85 | clearer dose-response | significant de novo ectopic mineralization | –
2 | CCCC(CCC)C(=O)O [VA1, valproic acid] | elevation | Neither VA1 nor C07 at 300 mM showed any increase | 17 | 80 | lack of a clear dose-response | significant de novo ectopic mineralization | –
3 | Unlabeled sclerostin: purified recombinant sclerostin protein, unlabeled competitor in the LRP5 binding assay | – | – | – | – | – | – | labeled-sclerostin competed off [3]: about 90%
4 | purified recombinant sclerostin (ligand) | – | – | – | – | – | – | percent of labeled sclerostin competed off [4]: 90%
5 | BMP2: bone morphogenetic protein 2, growth factor used to treat cells (protein, listed as Homo sapiens) MVAGTRCLLALLLPQVLLGGAAGLVPELGRRKFAAASSGRPSSQPSDEVLSEFELRLLSMFGLKQRPTPSRDAVVPPYMLDLYRRHSGQPGSPAPDHRLERAASRANTVRSFHHEESLEELPETSGKTTRRFFFNLSSIPTEEFITSAELQVFREQMQDALGNNSSFHHRINIYEIIKPATANSKFPVTRLLDTRLVNQNASRWESFDVTPAVMRWTAQGHANHGFVVEVAHLEEKQGVSKRHVRISRSLHQDEHSWSQIRPLLVTFGHDGKGHPLHKREKRQAKHKQRKRLKSSCKRHPLYVDFSDVGWNDWIVAPPGYHAFYCHGECPFPLADHLNSTNHAIVQTLVNSVNSKIPKACCVPTELSAISMLYLDENEKVVLKNYQDMVVEGCGCR | – | – | – | – | – | – | Sclerostin protein levels (Sclerostin protein): increased protein levels
